In paper PMC12135181, “The mechanism of lineage-specific tRNA recognition by bacterial tryptophanyl-tRNA synthetase and its implications for inhibitor discovery” (Nucleic Acids Research, 2025):
Like-named read-outs stand apart in the source and are kept apart here.

Legend:
[1] = biological target: T1, EcTrpRS (Escherichia coli, UniProt P00954); assay: Pyrophosphate (PPi) production assay; assay type: biochemical; details: 10 μM compound, average of three; for inhibition at 10 µM: read-out: Inhibitory rate of PPi production activity of EcTrpRS
T1 construct: hexahistidine tag (C); made in house; host or cells: Escherichia coli BL21(DE3)
Protocol: The inhibitory effects of various compounds of EcTrpRS were evaluated using a pyrophosphate (PPi) production assay. EcTrpRS was incubated with 10 μM (in 0.1% DMSO) of each compound for 10 min at room temperature. […] The mixture was incubated at 26°C for 45 min, after which 40 μl of malachite green reagent was added to terminate the reaction and develop color. Following an additional incubation of 10 min, the absorbance (A) was measured at 640 nm using a Synergy H1 microplate reader (BioTek). The absorbance of the reaction without adding a compound was designated as A1, the absorbance of the reaction without adding EcTrpRS was A0, and the absorbance of the reaction with the addition of a compound was AC. The inhibitory rates of compounds on enzyme activity were calculated as (A1 − AC)/(A1 − A0) × 100%. Each reaction was performed in triplicate.

[2] = biological target: T1, EcTrpRS; assay: Isothermal titration calorimetry (ITC) to EcTrpRS; assay type: binding
Protocol: (§1) The binding affinities of various compounds to EcTprRS were measured using a MicroCal VP-ITC microcalorimeter (MicroCal). Compounds at a concentration of 200 μM were titrated into 20 μM of EcTrpRS in PBS (phosphate buffered saline) buffer (137 mM NaCl, 2.7 mM KCl, 8 mM Na2HPO4, and 2 mM KH2PO4). The titration assays were conducted at 26°C, beginning with an initial injection of 0.4 μl, followed by 18 injections of 2 μl each, with an interval of 120 s between each injection. The dissociation constants (Kd) were calculated by fitting the calorimetric data to a one-site binding model using MicroCal PEAQ-ITC analysis software, with the reported errors in Kd values representing the curve fitting errors. All isothermal titration calorimetry (ITC) experiments were repeated at least twice, and the titrations of compounds to HcTrpRS were also performed for comparison.

[3] = biological target: T1, EcTrpRS; assay type: binding
[4] = biological target: T2, HcTrpRS (Homo sapiens, UniProt P23381); assay: Isothermal titration calorimetry (ITC) to HcTrpRS; assay type: binding
T2 construct: made in house
T2 sequence (P23381 1-471): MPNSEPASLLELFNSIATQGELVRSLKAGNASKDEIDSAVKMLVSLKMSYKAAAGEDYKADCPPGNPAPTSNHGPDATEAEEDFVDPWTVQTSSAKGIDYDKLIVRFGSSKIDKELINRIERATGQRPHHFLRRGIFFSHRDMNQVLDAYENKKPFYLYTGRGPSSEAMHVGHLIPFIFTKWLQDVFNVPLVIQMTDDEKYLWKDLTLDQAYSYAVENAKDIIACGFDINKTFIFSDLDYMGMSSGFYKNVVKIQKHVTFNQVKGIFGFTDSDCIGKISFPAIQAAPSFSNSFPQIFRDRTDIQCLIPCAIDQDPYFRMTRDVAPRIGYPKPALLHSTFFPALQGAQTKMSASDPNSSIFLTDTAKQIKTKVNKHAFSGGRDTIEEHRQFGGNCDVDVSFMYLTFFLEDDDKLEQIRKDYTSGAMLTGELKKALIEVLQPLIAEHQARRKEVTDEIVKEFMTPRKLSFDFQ
Protocol: as §1

[5] = no tRNA, no ATP, 26°C, PBS, read-out: Kd for binding to EcTrpRS (ITC)

Row | SMILES | Inhibitory rate of PPi production activity of EcTrpRS ([1]; 10 µM) | inhibition at 10 µM [1] [%] | Change of ΔTm of EcTrpRS with compound after addition of tRNA^Trp [3] | further results
1 | Nc1ncnc2n[nH]c(-c3ccc(Oc4ccccc4)cc3)c12 [IBT4A] | nor did they exhibit considerable inhibitory rates | – | – | Inhibitory rate of PPi production activity of EcTrpRS ([1]; listed as 8, 10 µM): < 5%
2 | Nc1ncnc2c1c(-c1ccc(Oc3ccccc3)cc1)nn2[C@@H]1CCCNC1 [IBT6A] | nor did they exhibit considerable inhibitory rates | – | – | Inhibitory rate of PPi production activity of EcTrpRS ([1]; listed as 6, 10 µM): 9%
3 | N[C@@H](Cc1c[nH]c2ccccc12)C(=O)O [L-Trp, tryptophan] | – | – | – | Binding to EcTrpRS (ITC) ([2]; in the presence of 200 μM N-piperidine ibrutinib): no binding; Kd [2, 5]: 40200 ± 4800 nM
4 | C=CC(=O)N1CCC[C@H](n2c(=O)n(-c3ccc(Oc4ccccc4)cc3)c3c(N)ncnc32)C1 [ONO-4059 analogue] | – | 38 | reduced | –
5 | Nc1ncnc2c1c(-c1ccc(Oc3ccccc3)cc1)nn2C1CCCC1 [PCI-29732] | nor did they exhibit considerable inhibitory rates | – | – | Inhibitory rate of PPi production activity of EcTrpRS ([1]; listed as 7, 10 µM): < 5%
6 | C=CC(=O)N1CCC[C@@H](n2nc(-c3ccc(Oc4ccccc4)cc3)c3c(N)ncnc32)C1 [ibrutinib] | – | 12 | – | Inhibitory rate of PPi production activity of EcTrpRS [1]: nor did they exhibit considerable inhibitory rates; ΔTm of EcTrpRS [3]: did not produce significant changes
7 | CN=C1NC(=O)[C@H]([C@H](C)c2c[nH]c3ccccc23)O1 [indolmycin] | – | 93 | – | Kd ([2]; in the absence of ATP, read-out: Kd (binding affinity) to EcTrpRS (ITC)): 804 ± 54 nM; Kd ([2]; in the presence of 1 mM ATP, read-out: Kd (binding affinity) to EcTrpRS (ITC)): 503 ± 31 nM
8 | CC#CC(=O)N1CC[C@@H](n2c(=O)n(-c3ccc(Oc4ccccc4)cc3)c3c(N)ncnc32)C1 [tirabrutinib] | – | 50 | reduced | Kd [2, 5]: 4800 ± 200 nM; Binding affinity for HcTrpRS (ITC) [4]: no binding affinities
9 | C=CC(=O)N1CCC[C@@H](n2c(=O)n(-c3ccc(Oc4ccccc4)cc3)c3c(N)nccc32)C1 [tolebrutinib] | – | 19 | reduced | –
